Measured values reported in article PMC9967051, “(S)-N-Benzyl-1-phenyl-3,4-dihydroisoqunoline-2(1H)-carboxamide Derivatives, Multi-Target Inhibitors of Monoamine Oxidase and Cholinesterase: Design, Synthesis, and Biological Activity” (Molecules, 2023).
Where two headings read alike, the source gives them in different places.

Experiments:
[1] = biological target: T1, BChE (Homo sapiens, UniProt P06276); conditions: cited from earlier work
[2] = biological target: AChE (Homo sapiens, UniProt P22303); conditions: cited from earlier work
[3] = biological target: T2, MAO-A (Homo sapiens, UniProt P21397); test: MAO activity assay, MAO-A; type: biochemical
T2 construct: purchased Aladdin Reagent Chemicals
T2 sequence (P21397 1-527): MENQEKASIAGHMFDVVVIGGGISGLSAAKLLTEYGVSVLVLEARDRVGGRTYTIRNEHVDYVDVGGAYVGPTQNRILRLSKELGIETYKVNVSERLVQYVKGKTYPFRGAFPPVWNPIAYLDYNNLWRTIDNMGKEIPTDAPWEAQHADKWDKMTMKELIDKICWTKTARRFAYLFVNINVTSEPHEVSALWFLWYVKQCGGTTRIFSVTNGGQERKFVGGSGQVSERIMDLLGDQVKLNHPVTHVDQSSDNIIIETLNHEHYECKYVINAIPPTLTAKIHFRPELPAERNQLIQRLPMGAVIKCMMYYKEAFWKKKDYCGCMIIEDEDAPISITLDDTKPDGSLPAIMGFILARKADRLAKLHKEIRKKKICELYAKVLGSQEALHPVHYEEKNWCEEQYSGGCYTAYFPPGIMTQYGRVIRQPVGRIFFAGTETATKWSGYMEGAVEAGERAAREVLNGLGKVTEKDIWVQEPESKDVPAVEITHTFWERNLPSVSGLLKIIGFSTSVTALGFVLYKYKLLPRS
Procedure: (§1) The enzyme activity analysis was performed according to the procedure reported by Matsumoto et al. with slight modifications. All materials used in the enzymatic assays were purchased from Aladdin Reagent Chemicals. […] The concentrations of the synthesized compounds altered from 0.001 µM to 100 µM for the MAO-A and -B enzyme activity inhibition. […] The enzymatic reactions were caused by the addition of MAO-A (40 µg/mL) or MAO-B (20 µg/mL), and cultured at 37 °C for 30 min. The enzyme reactions were stopped through the addition of 2N NaOH for 75 µL. […] The inhibitory effect of enzyme activity was calculated as a percentage of product formation compared to the corresponding control with no inhibitor. A control was established to determine the interference of the tested compounds to the fluorescence assay, and the enzyme or substrate was added after the reaction stopped.

[4] = MTT cytotoxicity test; type: cell-based; conditions: mouse; L929 cells, compared with the blank control, 3.125 to 100 μM
Procedure: (§2) L929 cells in the logarithmic growth phase were selected, and the cell density was adjusted to 2 × 10^4 per well by a cell counter. The 96-well plate was inoculated in a 96-well plate, and the 96-well plate inoculated with cells was cultured in a 37 °C 5% carbon dioxide cell incubator for 24 h. Then, the medium containing 100 μM of the compound to be tested was added (the blank group was added to the medium without drug), shaken gently, and placed in a 5% carbon dioxide cell incubator at 37 °C for 24 h. Each concentration was repeated for […].
(§3) The assay detects live cells, but not dead cells, and the resulting signal depends on how activated the cells are. […] Therefore, MTT has been used to establish quantitative colorimetric assays for mammalian cell survival and proliferation. Therefore, this method can be used to measure cytotoxicity, proliferation, or activation. After 24 h, 20 μL of […] MTT solution (prepared in PBS with pH 7.6) was added in the dark, and cultured in a cell incubator for another 4 h. After 4 h, the 96 plate was taken out to discard the original medium, and 160 μL of DMSO was added, placed on a shaker, and mixed for about 10 min. Then, a microplate reader was used to measure its absorbance at 490 nm, and the results were recorded and analyzed.

[5] = tested on: L929 cells; test: MTT cytotoxicity test; type: cell-based; conditions: MTT, 3.125 to 100 μM
Procedure: as §2, §3

[6] = biological target: T1, BChE; test: biochemical; conditions: compounds concentration 100 µM; read-out: Inhibition Rate BChE
Procedure: Inhibition of AChE and BChE was measured through the spectrophotometric method developed by Ellman’s method with slight modifications. The analysis protocol contained 96-well plates (100 µL per well). Each well involved 20 µL of assay buffer solution, 20 µL of the test sample, and 40 µL of 0.2 U/mL of AChE or BChE. The mixture was incubated for 10 min at 25 °C followed by the addition of substrate (20 µL). For AChE inhibition assay, acetylthiocholine iodide (ATCI, 0.001 mol/L), while for BChE assay, butyrylthiocholine chloride (BTCCl, 0.001 mol/L) was added to it. The mixture was incubated at 37 °C for 15 min. Ellman reagent (5,5′-dithio-bis(2-nitrobenzoic acid), DTNB, 0.001 mol/L) was added. […] The blank analysis was performed. All the analyses were performed in triplicate. Inhibition rate of experimental sample or positive control group (%) = [(control group-blank background)-(experimental sample or positive control group -sample background)]/(control-blank background) × 100%.

[7] = biological target: T3, MAO-B (Homo sapiens, UniProt P27338); test: MAO activity assay, MAO-B; type: biochemical
T3 construct: purchased Aladdin Reagent Chemicals
T3 sequence (P27338 1-520): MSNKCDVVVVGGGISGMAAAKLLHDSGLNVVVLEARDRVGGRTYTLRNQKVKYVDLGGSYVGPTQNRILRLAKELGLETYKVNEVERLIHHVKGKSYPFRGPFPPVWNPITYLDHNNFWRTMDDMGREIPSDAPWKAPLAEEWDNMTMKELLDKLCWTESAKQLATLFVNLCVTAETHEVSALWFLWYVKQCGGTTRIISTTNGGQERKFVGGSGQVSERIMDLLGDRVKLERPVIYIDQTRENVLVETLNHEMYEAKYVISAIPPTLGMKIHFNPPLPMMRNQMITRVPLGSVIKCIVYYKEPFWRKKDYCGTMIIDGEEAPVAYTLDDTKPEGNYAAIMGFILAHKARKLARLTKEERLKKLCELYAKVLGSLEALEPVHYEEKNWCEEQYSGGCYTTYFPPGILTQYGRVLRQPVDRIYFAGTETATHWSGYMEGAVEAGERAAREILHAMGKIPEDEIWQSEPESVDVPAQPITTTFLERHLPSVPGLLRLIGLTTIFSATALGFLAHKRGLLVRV
Procedure: as §1

[8] = tested on: MAO; test: MAO activity assay (total MAO); type: biochemical
Procedure: as §1

[9] = tested on: L929 cells; test: AO fluorescent staining cell viability; type: cell-based; conditions: 100 μM, compared with the control group
Procedure: Using the AO Fluorescent Staining Kit, AO is a tricyclic heteroaromatic dye that can penetrate cells with intact cell membranes and embed nuclear DNA, making them emit bright green fluorescence. L929 cells were selected from the logarithmic growth phase, and the cell density was adjusted to 8 × 10^5 per well with a cell counter to inoculate in a 6-well plate, and the 6-well plate was placed in a 37 °C 5% carbon dioxide cell incubator for 12 h. It grew completely adhering to the wall. After 12 h, 1 mL of medium containing 100 μM of the compound to be tested was added (for the blank group, drug-free medium was added), shaken gently, and placed in a 5% carbon dioxide cell incubator at 37 °C for 12 h. After 12h, the medium was discarded, PBS was added to wash once, 1 mL of PBS and 80 μL of AO solution (prepared according to the kit instructions) were slowly added in the dark, and mixed for 5 min to make the staining uniform and sufficient. The staining was aspirated after 5 min, washed 1–2 times with PBS, and observed under a fluorescence microscope, the results were recorded and analyzed.

[10] = biological target: T3, MAO-B; conditions: cited from earlier work
[11] = set-up: method as in doi:10.1007/s00044-018-2261-2; conditions: forced swimming test, p< 0.001; cited from earlier work
[12] = biological target: horse serum butyrylcholinesterase (EqBChE); conditions: cited from earlier work
[13] = biological target: T2, MAO-A; conditions: cited from earlier work
[14] = biological target: electric eel acetylcholinesterase (EeAChE); conditions: cited from earlier work

T1 sequence (P06276 29-602): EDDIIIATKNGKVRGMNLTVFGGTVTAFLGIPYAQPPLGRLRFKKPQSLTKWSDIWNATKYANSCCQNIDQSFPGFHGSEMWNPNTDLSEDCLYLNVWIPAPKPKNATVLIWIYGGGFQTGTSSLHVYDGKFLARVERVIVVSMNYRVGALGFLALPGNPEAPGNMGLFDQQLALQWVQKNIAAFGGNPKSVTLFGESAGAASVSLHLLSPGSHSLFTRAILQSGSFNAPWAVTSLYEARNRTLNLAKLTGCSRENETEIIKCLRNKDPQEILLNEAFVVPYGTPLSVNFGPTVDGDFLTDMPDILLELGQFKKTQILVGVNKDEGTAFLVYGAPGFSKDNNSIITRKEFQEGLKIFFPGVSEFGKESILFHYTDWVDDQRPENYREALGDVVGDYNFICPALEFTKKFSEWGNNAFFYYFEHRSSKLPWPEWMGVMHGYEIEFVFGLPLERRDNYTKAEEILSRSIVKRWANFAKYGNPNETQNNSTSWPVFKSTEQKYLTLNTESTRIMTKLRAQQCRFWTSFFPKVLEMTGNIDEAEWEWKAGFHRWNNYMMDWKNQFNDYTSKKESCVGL
AChE, sequence (P22303 32-614): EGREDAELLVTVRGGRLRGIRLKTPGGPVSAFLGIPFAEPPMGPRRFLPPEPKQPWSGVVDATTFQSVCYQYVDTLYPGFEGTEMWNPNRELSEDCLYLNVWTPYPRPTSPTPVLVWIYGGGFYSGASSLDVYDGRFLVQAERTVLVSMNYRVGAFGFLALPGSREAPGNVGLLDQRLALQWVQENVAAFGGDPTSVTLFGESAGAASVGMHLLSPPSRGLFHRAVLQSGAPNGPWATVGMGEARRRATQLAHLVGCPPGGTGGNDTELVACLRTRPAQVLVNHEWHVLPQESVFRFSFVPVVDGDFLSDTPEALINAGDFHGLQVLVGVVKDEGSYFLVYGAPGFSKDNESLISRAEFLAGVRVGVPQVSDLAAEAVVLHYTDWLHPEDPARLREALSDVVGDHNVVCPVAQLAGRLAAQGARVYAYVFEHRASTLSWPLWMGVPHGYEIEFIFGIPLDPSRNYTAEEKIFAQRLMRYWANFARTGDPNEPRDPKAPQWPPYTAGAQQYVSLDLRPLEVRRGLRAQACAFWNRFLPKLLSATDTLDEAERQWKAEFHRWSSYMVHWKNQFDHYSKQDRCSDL

SMILES	IC50 [3] [nM]	viability at 24 h [4] [%]	cytotoxicity against L929 cells [5]	IC50 [7] [nM]	IC50 [8] [nM]	toxicity toward L929 cells (AO fluorescence staining) [9]	also measured
COc1cc2c3c(c1OC)-c1cc4c(cc1CC3NCC2)OCO4 (stereo not drawn) [nornantenine]							IC50 [1]: 94400 nM; IC50 [2]: 206000 nM
O=C(NCc1ccc(Br)cc1)N1CCc2ccccc2[C@@H]1c1ccccc1 [2j, (S)-N-(p-bromobenzyl)-1-phenyl-3,4-dihydroisoquinoline-2(1H)-carboxamide]	2480	> 90	no obvious cytotoxicity	> 100000	1930	no significant toxicity	inhibition at 100 µM [6]: 34.5%
COc1cccc(CNC(=O)N2CCc3ccccc3[C@@H]2c2ccccc2)c1 [2t, (S)-N-(m-methoxybenzyl)-1-phenyl-3,4-dihydroisoquinoline-2(1H)-carboxamide]	2500	> 90	no obvious cytotoxicity	1610	2080	no significant toxicity	inhibition at 100 µM [6]: 55%
COc1ccc2c(c[n+](C)c3c4cc5c(cc4ccc23)OCO5)c1OC [chelerythrine]							IC50 [10]: > 20000 nM
COc1ccc(CNC(=O)N2CCc3ccccc3[C@@H]2c2ccccc2)c(OC)c1 [2v, (S)-N-(2,4-dimethoxybenzyl)-1-phenyl-3,4-dihydroisoquinoline-2(1H)-carboxamide]	3510	> 90	no obvious cytotoxicity	3520	958	no significant toxicity	
Cc1ccccc1CNC(=O)N1CCc2ccccc2[C@@H]1c1ccccc1 [2p, (S)-N-(o-methylbenzyl)-1-phenyl-3,4-dihydroisoquinoline-2(1H)-carboxamide]	2920	> 90	no obvious cytotoxicity	3880	774	no significant toxicity	
O=C(NCc1cccc(Br)c1)N1CCc2ccccc2[C@@H]1c1ccccc1 [2i, (S)-N-(m-bromobenzyl)-1-phenyl-3,4-dihydroisoquinoline-2(1H)-carboxamide]	1560	> 90	no obvious cytotoxicity	4300	1340	no significant toxicity	
COc1ccc(CC2c3cc(O)c(OC)cc3CCN2C)cc1O (stereo not drawn) [reticuline]							IC50 [1]: 65000 nM; IC50 [2]: 301000 nM
O=C(NCc1ccccc1)N1CCc2ccccc2[C@@H]1c1ccccc1 [2a, (S)-N-benzyl-1-phenyl-3,4-dihydroisoquinoline-2(1H)-carboxamide]							duration of immobility [11]: 11.0 ± 7.1 s; Inhibition Rate for MAO ([8]; compounds concentration 100 µM): 29.2%
C[n+]1cc2cc3c(cc2c2ccc4cc5c(cc4c21)OCO5)OCO3 [avicine]							IC50 [12]: 880 nM; IC50 [13]: 410 nM; IC50 [14]: 150 nM
